Reference: patent publication US8129345B2, “MUC1-IκB kinase complexes and their activities” (Dana-Farber Cancer Institute, Inc., priority 2006, dated 2012)

System: ZR-75-1/MUC1siRNA cells
Assay: Expression of Flag-tagged MUC1-CD in ZR-75-1/MUC1siRNA cells
Type: cell-based, Human
Conditions: compared to empty vector
Experimental: (§1) FIG. 9A is a pair of photographs of immunoblots. ZR-75-1/MUC1siRNA cells were transfected with the empty pIRES-puro2 vector or a pIRES-puro2-Flag-MUC1-CD vector. Lysates were prepared from the cells and subjected to SDS-PAGE and immunoblotting using antibodies specific to MUC1-C or β-actin as a control. The molecular weights of proteins (as indicated on the left of the photographs) are expressed as kilodaltons (kDa).
as §1, with “FIG. 9B” for “FIG. 9A”, “to immunoprecipitation” for “to SDS-PAGE and immunoblotting”, “to IKKγ. Immunoprecipitates were immunoblotted using antibodies specific for IKKβ” for “to MUC1-C”, “or IKKγ” for “or β-actin”, “as indicated.” for “as a control.”
as §1, with “9C” for “9A”, “immunoprecipitation” for “SDS-PAGE and immunoblotting”, “for IKKβ. Immunoprecipitates were immunoblotted using antibodies specific for phospho-IKKβ-ser-181” for “to MUC1-C”, “IKKβ” for “β-actin”, “indicated.” for “a control.”
FIG. 9D is a pair of photographs of immunoblots. Cytosolic fractions were prepared from ZR-75-1/MUC1siRNA cells transfected with the empty pIRES-puro2 vector or a pIRES-puro2-Flag-MUC1-CD vector. Lysates were immunoblotted with anti-phospho-IκBα and anti-IκBα antibodies where indicated. The molecular weights of proteins (as indicated on the left of the photographs) are expressed as kilodaltons (kDa).
FIG. 9E is a photograph of an immunoblot. Nuclear fractions were prepared from ZR-75-1/MUC1siRNA cells transfected with the empty pIRES-puro2 vector or a pIRES-puro2-Flag-MUC1-CD vector and subjected to immunoblotting with antibodies specific for NF-κB or lamin B as a control. As a further control for the quality of nuclear fractionation, immunoblotting for IκBα was performed using antibodies specific for IκBα. The molecular weights of proteins (as indicated on the left of the photographs) are expressed as kilodaltons (kDa).
Subcellular fractionation. Nuclear and cytosolic fractions were prepared as described in Kharbanda et al. (1996) Cancer Res. 56:3617-3621.
Immunoprecipitation and immunoblotting. Lysates from subconfluent cells were prepared as described in Ren et al. (2004) Cancer Cell 5:163-175. […] The immune complexes were detected with horseradish peroxidase-conjugated secondary (anti-IgG) antibodies (Amersham Biosciences) and enhanced chemiluminescence (ECL; Amersham Biosciences). […]

MUC1-CD: 72 amino acid cytoplasmic domain of human MUC1, SEQ ID NO:2
IKKβ-IKKγ complex formation: increases in IKKβ-IKKγ complex formation
phosphorylation of IKKβ on Ser-181: increased phosphorylation
phosphorylation of IκBα (cytosolic fractions): increased phosphorylation
targeting of NF-κB p65 to the nucleus (nuclear fractions): increased targeting of NF-κB p65 to the nucleus
